In ChEMBL document CHEMBL3886818, “Pyrazole carboxamides as Janus kinase inhibitors” (2016):

Columns and labels:
[1] = target: Tyrosine-protein kinase JAK1 (Homo sapiens, UniProt P23458); test: Subsequent reagent additions employed an Agilent Bravo.
[2] = target: Tyrosine-protein kinase JAK2 (Homo sapiens, UniProt O60674)
Chain of Tyrosine-protein kinase JAK2 (O60674 whole entry): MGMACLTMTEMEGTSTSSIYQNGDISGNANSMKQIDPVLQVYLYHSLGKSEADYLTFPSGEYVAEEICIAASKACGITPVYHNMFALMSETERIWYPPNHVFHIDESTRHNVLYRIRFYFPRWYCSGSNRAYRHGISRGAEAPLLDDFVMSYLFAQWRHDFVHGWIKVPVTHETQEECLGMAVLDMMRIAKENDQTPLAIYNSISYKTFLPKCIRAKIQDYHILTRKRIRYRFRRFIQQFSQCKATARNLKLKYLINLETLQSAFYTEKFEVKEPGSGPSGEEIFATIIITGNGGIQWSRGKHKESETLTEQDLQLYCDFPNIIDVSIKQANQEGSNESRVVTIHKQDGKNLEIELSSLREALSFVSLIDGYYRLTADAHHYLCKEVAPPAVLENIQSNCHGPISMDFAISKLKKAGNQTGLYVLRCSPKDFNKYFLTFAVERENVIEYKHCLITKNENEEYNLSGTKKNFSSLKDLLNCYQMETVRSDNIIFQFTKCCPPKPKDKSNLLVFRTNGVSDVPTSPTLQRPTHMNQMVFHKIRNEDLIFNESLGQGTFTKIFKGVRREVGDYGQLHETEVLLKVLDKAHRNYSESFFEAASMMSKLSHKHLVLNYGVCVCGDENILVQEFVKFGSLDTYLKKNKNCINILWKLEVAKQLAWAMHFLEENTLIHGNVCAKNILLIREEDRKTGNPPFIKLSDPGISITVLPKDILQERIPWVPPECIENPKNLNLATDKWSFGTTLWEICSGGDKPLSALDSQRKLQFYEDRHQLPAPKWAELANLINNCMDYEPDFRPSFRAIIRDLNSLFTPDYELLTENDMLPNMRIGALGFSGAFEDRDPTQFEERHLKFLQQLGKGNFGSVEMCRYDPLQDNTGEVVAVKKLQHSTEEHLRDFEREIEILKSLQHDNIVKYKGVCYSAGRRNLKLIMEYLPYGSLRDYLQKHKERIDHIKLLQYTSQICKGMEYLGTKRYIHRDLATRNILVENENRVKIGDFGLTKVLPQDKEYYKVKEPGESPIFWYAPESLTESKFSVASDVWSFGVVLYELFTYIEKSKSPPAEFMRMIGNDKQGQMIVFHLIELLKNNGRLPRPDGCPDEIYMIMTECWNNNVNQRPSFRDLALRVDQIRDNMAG

Chain of Tyrosine-protein kinase JAK1 (P23458 whole entry): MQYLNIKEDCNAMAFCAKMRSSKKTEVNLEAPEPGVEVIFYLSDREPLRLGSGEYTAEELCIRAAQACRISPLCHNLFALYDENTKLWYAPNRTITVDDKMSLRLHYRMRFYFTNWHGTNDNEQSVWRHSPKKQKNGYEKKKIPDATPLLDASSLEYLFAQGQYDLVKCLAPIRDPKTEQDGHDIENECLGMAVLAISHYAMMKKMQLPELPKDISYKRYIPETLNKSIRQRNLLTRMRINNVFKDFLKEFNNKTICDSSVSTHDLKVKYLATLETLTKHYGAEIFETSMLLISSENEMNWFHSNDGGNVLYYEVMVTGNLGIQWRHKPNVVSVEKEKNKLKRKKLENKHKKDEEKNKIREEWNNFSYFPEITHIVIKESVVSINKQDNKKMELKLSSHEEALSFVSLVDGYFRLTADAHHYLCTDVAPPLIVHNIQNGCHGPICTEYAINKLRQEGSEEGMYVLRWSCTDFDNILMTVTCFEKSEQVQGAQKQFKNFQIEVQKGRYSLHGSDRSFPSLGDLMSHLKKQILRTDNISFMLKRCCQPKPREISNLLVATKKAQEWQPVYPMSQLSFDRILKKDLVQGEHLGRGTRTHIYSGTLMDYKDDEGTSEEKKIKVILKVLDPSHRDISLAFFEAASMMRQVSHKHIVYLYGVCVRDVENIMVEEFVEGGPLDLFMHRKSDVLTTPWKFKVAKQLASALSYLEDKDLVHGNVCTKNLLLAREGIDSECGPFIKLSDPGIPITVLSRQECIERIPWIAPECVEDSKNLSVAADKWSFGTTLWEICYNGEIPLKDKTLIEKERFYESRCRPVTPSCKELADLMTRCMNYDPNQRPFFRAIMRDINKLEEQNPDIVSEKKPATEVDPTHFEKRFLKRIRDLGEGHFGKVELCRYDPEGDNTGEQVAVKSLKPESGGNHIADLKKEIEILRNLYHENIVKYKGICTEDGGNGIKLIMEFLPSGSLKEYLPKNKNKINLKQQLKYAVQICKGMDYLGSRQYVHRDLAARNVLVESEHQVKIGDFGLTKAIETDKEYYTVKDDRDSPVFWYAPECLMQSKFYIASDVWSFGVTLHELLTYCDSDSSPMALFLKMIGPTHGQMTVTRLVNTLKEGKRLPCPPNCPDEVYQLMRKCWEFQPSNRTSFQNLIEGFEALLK

N#C[C@H]1CCOC[C@@H]1n1cc(C(N)=O)c(Nc2ccc(OC(F)(F)F)cc2)n1 (single isomer, unassigned)
IC50 [1]: 0.2 nM
IC50 [2]: 1 nM
